Assays:
[1] = target: T1, σ1^spCFP/YFP construct expressed in HEK-293 cells (Homo sapiens, UniProt Q99720); assay: Single-cell real-time intramolecular FRET (iFRET) of the σ1 receptor FRET sensor; format: cell-based; conditions: for change in the FRET signal of the σ1^spCFP/YFP: 100 μM, single HEK-293 cell, FIG. 3
T1 construct: PTHR (PTH1R) signal peptide (N); expressed in transfected cells; host or cells: HEK-293 (stably transfected, G418 selected)
Procedure: In the single cell real time intramolecular-FRET approach both donor (i.e. CFP) and acceptor (i.e. YFP) are located in the same molecule, as designed for the σ1^CFP/YFP and the σ1^spCFP/YFP constructs (FIG. 1A). In brief, HEK cells permanently expressing the corresponding σ1 receptor FRET sensor were seeded in poly-D-Lysine coated coverslips and allow growing overnight. Then, the coverslips with transfected cells were mounted in an Attofluor holder and placed on an inverted Axio Observer microscope (Zeiss, Jena, Germany) equipped with a 63× oil immersion objective and a dual-emission photometry system (Till Photonics, Gräfelfing, Germany). The extracellular buffer was Hank's Balanced Salt Solution (HBSS), containing (in mM): 137 NaCl, 0.34 Na2HPO4, […], 0.44 KH2PO4, 0.5 MgCl2, 0.4 Mg2SO4, 1.26 CaCl2, 10 HEPES, 2 D-glucose and 1 ascorbic acid (pH 7.4 with NaOH).
A Polychrome V (Till Photonics) was used as the light source. The sample was illuminated with excitation light at 436±10 nm (beam splitter dichroic long-pass; DCLP 460 nm). Excitation time was 10 ms at 10 Hz, in order to limit photobleaching. Emission light intensities were determined at 535±15 and 480±20 nm (DCLP 505 nm). No corrections for spillover between channels or direct YFP excitation were made.
Single cells were selected for recording based on their σ1 expression as judged by its fluorescence. […] The ligands were applied using a pressure-driven, computer-controlled perfusion system (Octaflow; ALA Scientific Instruments, Westbury, N.Y., USA) and experiments were carried out at room temperature. Finally, a Digidata 1440 analog/digital converter (Molecular Devices, Sunnyvale, Calif., USA) was used for interfacing the photometry system and the perfusion system with a personal computer, which was used to control these systems and to record data. Finally, pCLAMP (Molecular Devices) and GraphPad Prism (GraphPad Software Inc., San Diego, Calif., USA) software were used for data collection and analysis.

σ1^YFP and CFP = assay: Control experiments with coexpression of σ1^YFP and CFP; format: cell-based, human; conditions: data not shown
Procedure: Next, we investigated whether σ1 challenge produced any rearrangements of the N- and C-terminal domains (i.e. conformational change) of the σ1 receptor by monitoring real time changes in the FRET efficiency. To this end, changes in the emission intensities of YFP (535 nm, yellow), CFP (480 nm, cyan) and the ratio F*535/F*480 (black) were recorded simultaneously from single cells after rapid superfusion with σ1 receptor ligands.

σ1 site = σ1 site (Homo sapiens, UniProt Q99720); conditions: cited from earlier work
sigma-2 (σ2) site = sigma-2 (σ2) site (Homo sapiens, UniProt Q5BJF2); conditions: cited from earlier work
Chain of sigma-2 (σ2) site (Q5BJF2 whole entry): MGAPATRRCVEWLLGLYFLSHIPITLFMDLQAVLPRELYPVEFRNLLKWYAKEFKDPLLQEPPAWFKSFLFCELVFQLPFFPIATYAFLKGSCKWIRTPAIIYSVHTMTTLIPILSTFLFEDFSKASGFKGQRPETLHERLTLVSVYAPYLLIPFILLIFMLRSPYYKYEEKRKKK

For `CC(C)=CCN1CCC2(C)c3cc(O)ccc3CC1C2C` (single isomer, unassigned; (+)) [(+)-Pentazocine], the “change in the FRET signal of the σ1^spCFP/YFP” value (shortened to “change … of the σ1^spCFP/YFP”) [1] was “decrease”.
For `CCCN1CCC[C@H](c2cccc(O)c2)C1` [(+)-3-PPP], the “change … of the σ1^spCFP/YFP” value [1] was “decrease”.
With `COc1ccc2c(c1)[C@]13CCCC[C@@H]1[C@H](C2)N(C)CC3` [Dextromethorphan] the “change … of the σ1^spCFP/YFP” value [1] was “decrease”.
For `O=C(CCCN1CCC(O)(c2ccc(Cl)cc2)CC1)c1ccc(F)cc1` [Haloperidol], the “FRET in the presence of ligand” value (σ1^YFP and CFP) was “no FRET”.
For `CCCN(CCC)CCc1ccc(OC)c(OCCc2ccccc2)c1` [NE-100], the “change … of the σ1^spCFP/YFP” value [1] was “increase”.
In the case of `O=C(OCCN1CCOCC1)C1(c2ccccc2)CCCCC1` [PRE-048], the “delay before FRET change” value ([1]; 100 μM ligand) was ~5 s, the “time constant τ of monoexponential time course of FRET change” value ([1]; 100 μM ligand, n=3) was 10.3 ± 0.3 s and the “change in the F*535/F*480 ratio” value ([1]; 100 μM ligand, rapid superfusion, single HEK-293 cells, FIG. 2D-E) was “rapid decrease”. The “change … of the σ1^spCFP/YFP” value [1] was “decrease” and the “FRET in the presence of ligand” value (σ1^YFP and CFP) was “no FRET”.
For `C=CCN1CC[C@]2(C)c3cc(O)ccc3C[C@H]1[C@H]2C` [SKF-10,047], the “affinity for the σ1 site” value (σ1 site) is given as “nanomolar affinity” and the “affinity for the sigma-2 (σ2) site” value (sigma-2 (σ2) site) is given as “micromolar affinity”.
